Laboratory results taken from USRE32016E, “Analysis of lactic acid or lactate using lactate oxidase” (Eastman Kodak Company, priority 1981, dated 1985).

Molecular target: lactate oxidase from Streptococcus faecalis ATCC 12755 (Enterococcus casseliflavus, UniProt C9AC47)
Settings: read-out: Km for L(+)-lactate; 30° C., potassium phosphate buffer pH 7.0
Description: For spectrophotometric assay of the lactate oxidase standard reaction mixtures contained in a total volume of 1.0 ml: 100 μmoles potassium phosphate buffer, pH 7.0, 25 μmoles lactic acid, 30 μg horseradish peroxidase (5.6 purpurogallin units), and 0.25 μmoles orthodianisidine. Samples were equilibrated at 30° C. and then reactions initiated by addition of S. faecalis lactate oxidase. Absorbance at 430 nm was measured in a Beckman A-25 Spectrophotometer. Initial rates were calculated from the linear portion of the curve and converted to units of lactate oxidase activity were appropriate. One unit=1 μmole of dye produced per minute at 30° C. using an ε=1.1×10^4 for orthodianisidine.
Reaction mixtures contained in a total volume of 1.0 ml: 90 μmoles potassium phosphate buffer, (pH 7.0), 0.2 μmoles orthodianisidine, or 96 μg 4-aminoantipyrene hydrochloride and 32 μg 1,7-dihydroxynaphthalene, 25 μg horseradish peroxidase (5.6-purpurogallin units) and 0.64 mg lactate oxidase (0.4 units).
Samples were equilibrated at 30° C. and the initial absorbance measured at 430 nm. […] For each serum sample, a blank, which contained all components except the lactate oxidase, was treated in the same manner as the sample. The ΔA430 for each blank was subtracted from the ΔA430 of the appropriate sample and the lactate concentration was determined by comparison to a lactate standard curve. […]

Chain of lactate oxidase from Streptococcus faecalis ATCC 12755 (C9AC47 entry or part of it): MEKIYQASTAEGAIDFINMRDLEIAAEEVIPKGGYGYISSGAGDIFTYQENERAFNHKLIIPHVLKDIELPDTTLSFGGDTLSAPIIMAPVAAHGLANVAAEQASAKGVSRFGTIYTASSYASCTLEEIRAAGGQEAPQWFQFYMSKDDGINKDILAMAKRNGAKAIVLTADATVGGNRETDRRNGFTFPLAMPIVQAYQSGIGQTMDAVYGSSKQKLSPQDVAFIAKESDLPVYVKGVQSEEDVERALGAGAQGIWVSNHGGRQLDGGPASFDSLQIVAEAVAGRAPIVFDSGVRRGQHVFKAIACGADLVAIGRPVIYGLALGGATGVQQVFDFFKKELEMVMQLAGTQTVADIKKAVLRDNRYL

C[C@H](O)C(=O)O [L(+)-lactate]
Km: 200 µM
